Like-named read-outs stand apart in the source and are kept apart here.
Legend:
MDM2/p53 PPI = conditions: Figure 9, representative of each group; collected from the literature; cited from earlier work
Hep3B (p53 null) = assay: cells; format: cell-based; conditions: Homo sapiens, means of three experiments, 72 h, read-out: MTT IC50 Hep3B (p53 null)
Description: (§1) In order to further confirm whether they inhibit MDM2 and release p53, a cellular test using HepG2 cell line (wild-type p53; wt-p53) vs. Hep3B cell line (p53 null) was carried out. The selectivity was calculated by IC50 against Hep3B divided by HepG2 (Table 1). The larger the selectivity value was, the stronger the interaction force between the ligands and MDM2.
(§2) The cellular growth inhibitory activity was determined using two human hepatoma cell lines, HepG2 (with wild-type p53) and Hep3B (with wt-p53 null). The IC50 was then analyzed using the GraphPad Prism 5 software (see Supplemental Materials).
(§3) In vitro antitumor activity.
(§4) Liver hepatocellular carcinoma HepG2 (with wild-type p53) and Hep3B (with p53 null) cell lines […]
(§5) 37°C in a humidified 5% carbon dioxide humidified incubator.
(§6) 5-6×10^4 cells per well were plated in 96-well plates (Costar) for 24 h, and the test compounds (prepared in 100% DMSO as a stock solution) were added in triplicate (100µL per well). 8 different concentrations (from 0.05 to 100µM) were tested for each compound. For each assay, the controls included only the medium (blank) and only the cells (positive). After 72 h of incubation, 20 µL of MTT (3-[4,5-dimethylthiazol-2-yl]-2,5-diphenyltetrazoliumbromide) solution (5 mg/mL) was added to each well, and after the samples were shaken for 1 min the plate was incubated further for 4 h at 37°C. […] were dissolved with 150 µL of DMSO and the plates were read using Eon (BioTek) at 570 nm. The IC50 was then analyzed using GraphPad Prism software. […]

HepG2 (wt-p53) = assay: cells; format: cell-based, human; conditions: for IC50: Homo sapiens, HepG2, means of three experiments, 72 h, read-out: MTT IC50 HepG2 (wt-p53)
Description: as §1, §2, §3, §4, §5, §6

[1] = target: T1, human recombinant His-fused soluble protein MDM2 (residues 1–118) (Homo sapiens, UniProt Q00987); assay: biochemical; format: binding; conditions: for FQ-Test: fit quality calculated using pKi tested by FP; for Ki: fluorescence polarization assay
T1 construct: His-fused soluble protein MDM2 (residues 1–118); His

[2] = IC50 of Hep3B (p53 null) divided by HepG2 (wt-p53)

T1 sequence (Q00987 1-118): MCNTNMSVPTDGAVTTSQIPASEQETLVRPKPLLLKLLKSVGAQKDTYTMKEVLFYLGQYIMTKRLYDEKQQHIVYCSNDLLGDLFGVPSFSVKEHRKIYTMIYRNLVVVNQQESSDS

CCOc1cc(C(C)(C)C)ccc1C1=N[C@@](C)(c2ccc(Cl)cc2)[C@@](C)(c2ccc(Cl)cc2)N1C(=O)N1CCN(CCCS(C)(=O)=O)CC1 [A]
IC50 (MDM2/p53 PPI): 0.09 µM

CC(C)C(CS(=O)(=O)C(C)C)N1C(=O)C(C)(CC(=O)O)CC(c2cccc(Cl)c2)C1c1ccc(Cl)cc1 (stereo not shown) [B]
IC50 (MDM2/p53 PPI): 0.0001 µM

COc1cc(C(=O)O)ccc1NC(=O)[C@@H]1N[C@@H](CC(C)(C)C)[C@](C#N)(c2ccc(Cl)cc2F)[C@H]1c1cccc(Cl)c1F [G]
IC50 (MDM2/p53 PPI): 0.006 µM

CC(C)(C)CC1NC(C(=O)NC2CCC(O)CC2)C(c2cccc(Cl)c2F)C12C(=O)Nc1cc(Cl)ccc12 (stereo not shown) [H]
IC50 (MDM2/p53 PPI): 0.214 µM

CCCCN1C(=O)[C@](O)(CC(=O)c2ccccc2OC)c2cc(Br)ccc21 [compound 1]
IC50 (Hep3B (p53 null)): 77.5 µM | Selectivity (HepG2 (wt-p53)): 8.98 | IC50 (HepG2 (wt-p53)): 8.63 µM | FQ-Test [1]: 0.75 | Ki [1]: 3.9 µM

COc1ccc(OC)c(S(=O)(=O)N(C)CC(=O)Nc2ccccc2OC)c1 [compound 2]
IC50 (Hep3B (p53 null)): 33.5 µM | IC50 (HepG2 (wt-p53)): 5.38 µM | Selectivity (HepG2 (wt-p53); [2]): 6.23 | FQ-Test [1]: 0.78 | Ki [1]: 2.21 µM

O=C(Nc1nc2ccccc2s1)c1ccccc1C(=O)c1ccc(Cl)cc1 [compound 3]
IC50 (Hep3B (p53 null)): 47.3 µM | Selectivity (HepG2 (wt-p53)): 10.75 | IC50 (HepG2 (wt-p53)): 4.4 µM | FQ-Test [1]: 0.86 | Ki [1]: 0.62 µM

Nc1c(Cl)cc([C@@H](O)CN[C@H]2c3ccccc3CSc3ccccc32)cc1Cl [compound 4]
IC50 (Hep3B (p53 null)): 34.8 µM | Selectivity (HepG2 (wt-p53)): 6.51 | IC50 (HepG2 (wt-p53)): 5.35 µM | FQ-Test [1]: 0.83 | Ki [1]: 0.82 µM

COC(=O)c1cc(Oc2ccc(C(F)(F)F)cc2NS(=O)(=O)c2cccc(Cl)c2C)cs1 [compound 5]
IC50 (Hep3B (p53 null)): 23.2 µM | IC50 (HepG2 (wt-p53)): 4.77 µM | Selectivity (HepG2 (wt-p53); [2]): 4.87 | FQ-Test [1]: 0.80 | Ki [1]: 0.94 µM

CCOc1ccccc1Oc1cnc(N)nc1-c1ccc(OCc2ccc(C)cc2)cc1O [compound 6]
IC50 (Hep3B (p53 null)): 20.5 µM | Selectivity (HepG2 (wt-p53)): 3.71 | IC50 (HepG2 (wt-p53)): 5.54 µM | FQ-Test [1]: 0.83 | Ki [1]: 0.59 µM

Reference: paper PMC6321222, “An Application of Fit Quality to Screen MDM2/p53 Protein-Protein Interaction Inhibitors” (Molecules, 2018)
